Data from patent US9546153B2, “Bicyclic heterocycle substituted pyridyl compounds useful as kinase modulators” (BRISTOL-MYERS SQUIBB COMPANY, priority 2012, dated 2017).
pEC50, pIC50: −log10 of the molar value. Where two headings read alike, the source gives them in different places.

Legend:
IRAK4 = IRAK4 (Homo sapiens (Human), UniProt Q9NWZ3); assay: IRAK4 Inhibition Assay; type: biochemical; details: ATP 500 μM; IRAK4 0.6 nM; 60 min at room temperature
Protocol: The assays were performed in U-bottom 384-well plates. […] The reaction was initiated by the combination of IRAK4 with substrates and test compounds. The reaction was incubated at room temperature for 60 min. and terminated by adding 45 μL of 35 mM EDTA to each sample. The reaction mixture was analyzed on the Caliper LABCHIP® 3000 (Caliper, Hopkinton, Mass.) by electrophoretic separation of the fluorescent substrate and phosphorylated product.

[1] = system: TLR2 induced IL-6 in peripheral blood mononuclear cells (PBMCs); assay: PBMC TLR2 Induced IL-6 Assay; type: cell-based, human; details: for pIC50: read-out: Cell IC50; for pEC50: EC50 determinations are indicated with an asterisk, read-out: Cell EC50 (asterisk)
Procedure, shortened: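 IL-6 ELISA of supernatants after a 5 h challenge with the TLR2 agonist lipoteichoic acid (10 μg/ml). Before stimulation, human PBMCs (250000 cells/well; RPMI, 10% heat-inactivated FCS) received compound for 30 min at 37° C. Values given as IC50 or EC50.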

[2] = Homo sapiens, PBMC, 5 h, human PBMCs, 10 μg/ml lipoteichoic acid for 5 hours, IL-6 by ELISA, value without asterisk
[3] = human PBMCs, 10 μg/ml lipoteichoic acid for 5 hours, IL-6 by ELISA, value without asterisk
[4] = Homo sapiens, PBMC, 5 h, human PBMCs, 10 μg/ml lipoteichoic acid for 5 hours, IL-6 by ELISA

Sequence of IRAK4 (Q9NWZ3 whole entry, species assumed): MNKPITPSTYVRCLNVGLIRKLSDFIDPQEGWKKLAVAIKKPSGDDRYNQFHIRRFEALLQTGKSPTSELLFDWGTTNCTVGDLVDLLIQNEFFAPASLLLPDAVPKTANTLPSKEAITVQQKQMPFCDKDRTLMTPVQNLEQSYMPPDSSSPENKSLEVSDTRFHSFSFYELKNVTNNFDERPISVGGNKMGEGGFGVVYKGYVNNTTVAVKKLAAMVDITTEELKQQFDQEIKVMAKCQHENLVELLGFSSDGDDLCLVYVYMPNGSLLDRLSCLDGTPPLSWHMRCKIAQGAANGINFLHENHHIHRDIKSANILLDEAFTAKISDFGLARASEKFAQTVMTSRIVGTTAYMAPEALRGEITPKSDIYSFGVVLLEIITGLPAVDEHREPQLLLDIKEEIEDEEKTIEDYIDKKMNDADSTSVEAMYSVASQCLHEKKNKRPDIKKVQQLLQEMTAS

SMILES	pIC50 (IRAK4)	pIC50 [1, 2]	pIC50 [1, 3]	pIC50 ([1]; Homo sapiens, PBMC, 5 h)	pEC50 [1, 4]
CC(C)(O)[C@H](F)CNC(=O)c1cnc(Nc2ncc3ncccc3n2)cc1NC1CCOCC1 [Example 371]	8.22	6.22	–	–	–
CC(C)(F)CNc1cc(Nc2cc3scnc3cn2)ncc1C(=O)NC[C@@H](F)C(C)(C)O [Example 316]	8.33	6.37	–	–	–
CC(C)(O)[C@H](F)CNC(=O)c1cnc(Nc2ccc3nccnc3c2)cc1NC1CCCC1O (stereo partly drawn) [Example 338]	7.77	6.31	–	–	–
CN(C)CC(=O)NC12CCC(Nc3cc(Nc4ccc5ncsc5c4)ncc3C(=O)NC[C@@H](F)C(C)(C)O)(CC1)C2 [Example 398]	8.46	6.52	–	–	–
CC(C)Nc1cc(Nc2ccc3ncsc3c2)ncc1C(=O)N[C@H]1CC[C@H](NC(=O)c2ccncc2)CC1 [Example 207]	8.77	6.80	–	–	–
CC(C)(O)[C@H](F)CNC(=O)c1cnc(Nc2ccc3ncsc3c2)cc1NCCO [Example 161]	7.75	6.24	–	–	–
CC(C)Nc1cc(Nc2ccc3ncsc3c2)ncc1C(=O)NC1CCN(C(=O)c2cccnc2)CC1 [Example 219]	8.32	6.35	–	–	–
CC(C)Nc1cc(Nc2ccn3nccc3c2)ncc1C(=O)NC[C@@H](F)C(C)(C)O [Example 286]	8.28	6.38	–	–	–
CC(CO)Nc1cc(Nc2ccc3ncsc3c2)ncc1C(=O)NC[C@@H](F)C(C)(C)O (stereo partly drawn) [Example 39]	8.28	6.30	–	–	–
O=C(Nc1ccc(Cn2cncn2)cc1)c1cnc(Nc2ccc3ncsc3c2)cc1NC1CCCC1 [Example 156]	8.00	6.30	–	–	–
CC(C)(O)[C@H](F)CNC(=O)c1cnc(Nc2ccc3ncc(C#N)cc3n2)cc1NC1CCC(F)C1 (stereo partly drawn) [Example 412]	8.59	–	6.96	–	–
CC(F)CNc1cc(Nc2ccc3ncsc3c2)ncc1C(=O)NC[C@@H](F)C(C)(C)O (stereo partly drawn) [Example 451]	8.30	–	6.59	–	–
CN1CCCC1CCNC(=O)c1cnc(Nc2ccc3ncsc3c2)cc1NC1CCCC1 (stereo not drawn) [Example 149]	8.42	6.41	–	–	–
CC(C)Nc1cc(Nc2ccc3ncsc3c2)ncc1C(=O)NCC[C@@H](C)NC(=O)C1CCCC1 [Example 184]	8.72	–	–	6.67	–
CCNc1cc(Nc2ccc3ncsc3c2)ncc1C(=O)NC[C@@H](F)C(C)(C)O [Example 96]	8.37	6.77	–	–	–
CC(C)CNc1cc(Nc2ccn3nccc3c2)ncc1C(=O)NC[C@@H](F)C(C)(C)O [Example 289]	8.21	6.30	–	–	–
CNC(=O)c1ccc(CCNC(=O)c2cnc(Nc3ccc4ncsc4c3)cc2NC(C)C)cc1 [Example 12]	8.25	6.51	–	–	–
CC(C)(O)[C@H](F)CNC(=O)c1cnc(Nc2ccc3ncsc3c2)cc1NC12CCC(NC(=O)c3cccnc3)(CC1)C2 [Example 395]	8.36	6.48	–	–	–
CNC(=O)[C@H]1CC[C@H](NC(=O)c2cnc(Nc3ccc4ncsc4c3)cc2NC2CCC2)CC1 [Example 504]	8.33	6.30	–	–	–
CC(C)(O)[C@H](F)CNC(=O)c1cnc(Nc2cc3scnc3cc2F)cc1NCC(F)(F)F [Example 515]	8.47	6.35	–	–	–
CC(C)(O)[C@H](F)CNC(=O)c1cnc(Nc2ccc3nccn3n2)cc1NC1CCCC1F (stereo partly drawn) [Example 273]	8.62	6.12	–	–	–
CC(C)(O)[C@H](F)CNC(=O)c1cnc(Nc2ccn3nccc3n2)cc1NC1CCCC1F (stereo partly drawn) [Example 246]	8.26	–	6.58	–	–
Cc1cc2nc(Nc3cc(NC4CCC(F)C4)c(C(=O)NC[C@@H](F)C(C)(C)O)cn3)ccn2n1 (stereo partly drawn) [Example 268]	8.21	–	6.42	–	–
CCNC(=O)[C@H]1CC[C@H](NC(=O)c2cnc(Nc3ccc4ncsc4c3)cc2NC(C)C)CC1 [Example 225]	8.48	6.27	–	–	–

SMILES	pIC50 (IRAK4)	pIC50 [1, 2]	pIC50 [1, 3]	pIC50 ([1]; Homo sapiens, PBMC, 5 h)	pEC50 [1, 4]
CC1(O)CCC(Nc2cc(Nc3ccc4ncsc4c3)ncc2C(=O)NC[C@@H](F)C(C)(C)O)C1 (stereo partly drawn) [Example 50]	8.17	6.24	–	–	–
CC(C)(O)[C@H](F)CNC(=O)c1cnc(Nc2ccc3ncsc3c2)cc1N[C@@H]1CCCC1F (stereo partly drawn) [Example 344]	8.74	–	7.42	–	–
CC(C)(O)[C@H](F)CNC(=O)c1cnc(Nc2ccn3nccc3n2)cc1NCC(F)F [Example 386]	7.70	6.29	–	–	–
CC(C)Nc1cc(Nc2ccc3ncsc3c2)ncc1C(=O)NCC[C@@H](C)NC(=O)[C@@H]1CCC(F)(F)C1 [Example 186]	8.62	6.44	–	–	–
CC(C)(O)[C@H](F)CNC(=O)c1cnc(Nc2nc3ccnn3cc2F)cc1NC1CC2CC2C1(F)F (stereo partly drawn) [Example 481]	8.44	6.65	–	–	–
CC(C)(O)[C@H](F)CNC(=O)c1cnc(Nc2nc3ccnn3cc2F)cc1NC1CCC(F)C1 (stereo partly drawn) [Example 478]	8.66	–	7.30	–	–
Cc1nn2ccc(Nc3cc(NCC(C)(C)F)c(C(=O)NC[C@@H](F)C(C)(C)O)cn3)cc2c1F [Example 300]	8.36	6.53	–	–	–
CC(C)(O)[C@H](F)CNC(=O)c1cnc(Nc2nc3ccnn3cc2F)cc1NC1CCC(F)C1 (stereo partly drawn) [Example 409]	8.52	–	6.68	–	–
CC(C)Nc1cc(Nc2ccc3nccnc3c2)ncc1C(=O)NC[C@@H](F)C(C)(C)O [Example 55]	8.23	6.46	–	–	–
CC(=O)N[C@H]1CC[C@H](NC(=O)c2cnc(Nc3nc4ccnn4cc3F)cc2NC2CCOCC2)CC1 [Example 513]	8.03	5.80	–	–	–
CC(C)Nc1cc(Nc2ccc3ncsc3c2)ncc1C(=O)NC1CCC(C(C)(C)O)CC1 (stereo not drawn) [Example 456]	8.80	6.47	–	–	–
CC(C)(O)[C@H](F)CNC(=O)c1cnc(Nc2ccc3ncc(C#N)cc3n2)cc1NC1CCC(F)(F)C1 (stereo partly drawn) [Example 407]	8.57	–	6.59	–	–
CC(C)Nc1cc(Nc2ccc3ncsc3c2)ncc1C(=O)NCCC(C)(C)O [Example 8]	8.39	6.54	–	–	–
CC(C)Nc1cc(Nc2ccc3ncsc3c2)ncc1C(=O)NCCc1ccc(C(N)=O)cc1 [Example 11]	8.11	6.14	–	–	–
CC(C)Nc1cc(Nc2ccc3ncsc3c2)ncc1C(=O)N[C@H]1CC[C@H](NS(C)(=O)=O)CC1 [Example 204]	8.59	6.60	–	–	–
CC(C)Nc1cc(Nc2ccc3ncsc3c2)ncc1C(=O)NC1CCN(C(=O)N2CCOCC2)CC1 [Example 218]	8.15	6.33	–	–	–
CC(CCF)Nc1cc(Nc2nc3ccnn3cc2F)ncc1C(=O)NC[C@@H](F)C(C)(C)O (stereo partly drawn) [Example 502]	8.32	–	–	–	6.84
CC(C)(O)[C@H](F)CNC(=O)c1cnc(Nc2ccc3ncccc3n2)cc1NC1CCOCC1F (stereo partly drawn) [Example 439]	8.51	–	7.19	–	–
CC(C)(O)C(F)(F)CNC(=O)c1cnc(Nc2ccc3ncsc3c2)cc1NC1CC1 [Example 170]	8.23	6.32	–	–	–
CNC(=O)[C@H]1CC[C@H](NC(=O)c2cnc(Nc3ccc4ncsc4c3)cc2NCC(F)(F)F)CC1 [Example 506]	8.19	6.49	–	–	–
Cc1cn2nccc2cc1Nc1cc(NC(C)C)c(C(=O)NC[C@@H](F)C(C)(C)O)cn1 [Example 487]	8.09	–	–	–	6.20
CC(C)(O)[C@H](F)CNC(=O)c1cnc(Nc2ccc3ncsc3c2)cc1NC1CCOCC1F (stereo partly drawn) [Example 231]	8.47	–	7.06	–	–
CC(C)(F)CNc1cc(Nc2ccc3ncc(C#N)cc3n2)ncc1C(=O)NC[C@@H](F)C(C)(C)O [Example 373]	8.29	6.37	–	–	–
CC(C)(O)[C@H](F)CNC(=O)c1cnc(Nc2ccc3ncsc3c2)cc1NC1CCC(F)C1 (single isomer, unassigned) [Example 364, 6-(benzo[d]thiazol-6-ylamino)-N-(2-fluoro-3-hydroxy-3-methylbutyl)-4-(3-fluorocyclopentylamino)nicotinamide]	8.44	–	7.04	–	–
